Experimental data published in PubChem BioAssay (NCI).
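Following 48 hours of exposure in 96-well plates, responses at five concentrations were used to interpolate endpoints linearly. GI50 marks 50% less growth. At the TGI there is no net growth.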

Columns and labels:
Test in all cases: DTP human tumour cell line panel, 48 h
[1] = system: SK-OV-3 ovarian
[2] = system: OVCAR-8 ovarian
[3] = system: SW-620 colon
[4] = system: MOLT-4 leukemia
[5] = system: COLO 205 colon
[6] = system: SF-539 CNS
[7] = system: SF-268 CNS
[8] = system: U251 CNS
[9] = system: SF-295 CNS
[10] = system: MALME-3M melanoma
[11] = system: PC-3 prostate
[12] = system: HOP-62 NSCLC
[13] = system: HT29 colon
[14] = system: SN12C renal
[15] = system: IGROV1 ovarian
[16] = system: A549 NSCLC
[17] = system: RPMI-8226 leukemia
[18] = system: HOP-92 NSCLC
[19] = system: MDA-MB-231 breast
[20] = system: CAKI-1 renal
[21] = system: MDA-MB-435
[22] = system: K-562 leukemia
[23] = system: HCC-2998 colon
[24] = system: RXF 393 renal
[25] = system: NCI-H522 lung
[26] = system: SNB-75 CNS
[27] = system: T-47D breast
[28] = system: BT-549 breast
[29] = system: MCF7 breast
[30] = system: SK-MEL-2 melanoma
[31] = system: UO-31 renal
[32] = system: HL-60(TB) leukemia
[33] = system: LOX IMVI melanoma
[34] = system: OVCAR-3 ovarian
[35] = system: ACHN renal
[36] = system: HS 578T breast
[37] = system: HCT-15 colon
[38] = system: CCRF-CEM leukemia
[39] = system: NCI-H460 lung
[40] = system: KM12 colon
[41] = system: DU-145 prostate
[42] = system: SR leukemia
[43] = system: HCT-116 colon
[44] = system: NCI-H226 lung
[45] = system: OVCAR-5 ovarian
[46] = system: SK-MEL-28 melanoma
[47] = system: EKVX NSCLC
[48] = system: M14 melanoma
[49] = system: MDA-MB-468 breast
[50] = system: UACC-62 melanoma
[51] = system: SK-MEL-5 melanoma
[52] = system: A498 renal
[53] = system: TK-10 renal
[54] = system: OVCAR-4 ovarian
[55] = system: UACC-257 melanoma
[56] = system: 786-0 renal
[57] = system: NCI-H23 lung
[58] = system: SNB-19 CNS

Work on `O=C1NC(=NC23CC4CC(CC(C4)C2)C3)N/C1=C\c1ccc2ncccc2c1` yielded a GI50 [1] of 3.59 µM, a TGI [1] of 35.2 µM and a GI50 [2] of 8 µM. It also gave a TGI [2] of 33.2 µM, a GI50 [3] of 3.95 µM and a TGI [3] of over 100 µM. The GI50 [4] was 3.95 µM, the TGI [4] was 26 µM and the GI50 [5] was 5.58 µM. For the same compound, the TGI [5] was over 100 µM, the GI50 [6] was 1.18 µM and the TGI [6] was over 100 µM. For the same compound, the GI50 [7] was 8.17 µM, the TGI [7] was over 100 µM and the GI50 [8] was 10.2 µM. The TGI [8] was 26.8 µM, the GI50 [9] was 7.56 µM and the TGI [9] was 64.9 µM. It also gave a GI50 [10] of 28.6 µM, a TGI [10] of 94.9 µM and a GI50 [11] of 15 µM. It also gave a TGI [11] of 64.2 µM, a GI50 [12] of 6.56 µM and a TGI [12] of over 100 µM. For the same compound, the GI50 [13] was 22.8 µM, the TGI [13] was over 100 µM and the GI50 [14] was 5.17 µM. For the same compound, the TGI [14] was over 100 µM, the GI50 [15] was 6.43 µM and the TGI [15] was over 100 µM. For the same compound, the GI50 [16] was 4.09 µM, the TGI [16] was 18.6 µM and the GI50 [17] was 6.82 µM. It also gave a TGI [17] of 51.2 µM, a GI50 [18] of 25.9 µM and a TGI [18] of over 100 µM. The GI50 [19] was 16.9 µM, the TGI [19] was 64.7 µM and the GI50 [20] was 4.15 µM. It also gave a TGI [20] of 34.7 µM, a GI50 [21] of 5.53 µM and a TGI [21] of over 100 µM. It also gave a GI50 [22] of 3.08 µM, a TGI [22] of over 100 µM and a GI50 [23] of 7.5 µM. It also gave a TGI [23] of over 100 µM, a GI50 [24] of 3.45 µM and a TGI [24] of 28.1 µM. The GI50 [25] was 1.97 µM, the TGI [25] was 30.8 µM and the GI50 [26] was 0.218 µM. It also gave a TGI [26] of 26.6 µM, a GI50 [27] of 19.4 µM and a TGI [27] of over 100 µM. The GI50 [28] was 4.39 µM, the TGI [28] was 41.9 µM and the GI50 [29] was 6.59 µM. The TGI [29] was over 100 µM, the GI50 [30] was 2.35 µM and the TGI [30] was 10 µM. The GI50 [31] was 5.03 µM, the TGI [31] was over 100 µM and the GI50 [32] was 3.09 µM. It also gave a TGI [32] of 27.3 µM, a GI50 [33] of 7.86 µM and a TGI [33] of 29.5 µM. For the same compound, the GI50 [34] was 2.86 µM, the TGI [34] was 29.7 µM and the GI50 [35] was 4.09 µM. The TGI [35] was 26.2 µM, the GI50 [36] was 2.9 µM and the TGI [36] was 34.3 µM. For the same compound, the GI50 [37] was 2.8 µM, the TGI [37] was 22.7 µM and the GI50 [38] was 3.22 µM. The TGI [38] was 19.1 µM, the GI50 [39] was 3.38 µM and the TGI [39] was 15.2 µM. It also gave a GI50 [40] of 11 µM, a TGI [40] of over 100 µM and a GI50 [41] of 6.03 µM. For the same compound, the TGI [41] was over 100 µM, the GI50 [42] was 2.33 µM and the TGI [42] was 12.3 µM. It also gave a GI50 [43] of 3.41 µM, a TGI [43] of 16 µM and a GI50 [44] of 4.91 µM. The TGI [44] was 42.1 µM, the GI50 [45] was 64.4 µM and the TGI [45] was over 100 µM. For the same compound, the GI50 [46] was 12.5 µM, the TGI [46] was over 100 µM and the GI50 [47] was 8.33 µM. It also gave a TGI [47] of over 100 µM, a GI50 [48] of 6.07 µM and a TGI [48] of over 100 µM. For the same compound, the GI50 [49] was 2.11 µM, the TGI [49] was over 100 µM and the GI50 [50] was 40.2 µM. It also gave a TGI [50] of over 100 µM, a GI50 [51] of 12.4 µM and a TGI [51] of over 100 µM. It also gave a GI50 [52] of 1.12 µM, a TGI [52] of over 100 µM and a GI50 [53] of 6.87 µM. It also gave a TGI [53] of 60.7 µM, a GI50 [54] of 16.3 µM and a TGI [54] of 80.8 µM. For the same compound, the GI50 [55] was 66.1 µM, the TGI [55] was over 100 µM and the GI50 [56] was 8.95 µM. It also gave a TGI [56] of 45 µM, a GI50 [57] of 4.98 µM and a TGI [57] of over 100 µM. For the same compound, the GI50 [58] was 11.7 µM and the TGI [58] was over 100 µM.
With `CCCCCCCCCCCCCCCc1ccc(C(=O)C[n+]2ccccc2)cc1` the GI50 [49] was 1.55 µM and the TGI [49] was 2.89 µM.
With `CCOC(=O)/C(=C/c1c(-c2ccccc2)[nH]c2ccccc12)C(=O)c1ccc(Cl)cc1` the GI50 [49] was 4.36 µM and the TGI [49] was over 100 µM.
`Oc1ccc(-c2nc(-c3ccc(F)cc3)c(-c3ccncc3)[nH]2)cc1` gave a GI50 [49] of 6.57 µM and a TGI [49] of 44.4 µM.
`C#CCSc1nnnn1-c1ccc(Br)c(C)c1` gave a GI50 [49] of 21.2 µM and a TGI [49] of 79.7 µM.
Work on `CCN(CC)c1ccc(/C=C/C2=[N+](C)c3ccccc3C2(C)C)cc1` yielded a GI50 [49] of 0.175 µM and a TGI [49] of 5.88 µM.
Work on `CCN(CC)CCN1C(=O)c2c(c3c4cc(Br)ccc4[nH]c3c3ccc4ccccc4c23)C1=O` yielded a GI50 [49] of 1.52 µM and a TGI [49] of 3.45 µM.
For `C/C(=N\NC(=S)Nc1ccccc1)c1ccccn1`, the GI50 [49] was under 0.0132 µM and the TGI [49] was 0.115 µM.
`COc1cccc(N2CCN(C3=C(Cl)C(=O)c4ncccc4C3=O)CC2)c1` showed a GI50 [49] of 1.75 µM and a TGI [49] of 3.43 µM.
`O=C1/C(=C\c2ccccc2)CN(C(=O)c2ccccc2F)C/C1=C\c1ccccc1` gave a GI50 [49] of 1.81 µM and a TGI [49] of 3.89 µM.
Compound `S=c1nc(/C=C/c2ccc(Cl)c(Cl)c2)[nH][nH]1` has a GI50 [49] of over 100 µM and a TGI [49] of over 100 µM.
For `N=C(N)c1ccc(-c2ccc(-c3ccccc3)o2)cc1`, the GI50 [49] was 2.12 µM and the TGI [49] was 4.1 µM.
Compound `C=C(CNCCc1ccc(O)cc1)[C@@H]1CC[C@]2(CO)CC[C@]3(C)[C@H](CC[C@@H]4[C@@]5(C)CCC(NCCO)C(C)(C)[C@@H]5CC[C@]43C)[C@@H]12` (some centres not stated) has a GI50 [49] of 1.26 µM and a TGI [49] of 2.92 µM.
Work on `CC[C@]12C=CCN3CC[C@]4(C(=C(C(=O)OC)C1)Nc1ccccc14)[C@@H]32` yielded a GI50 [49] of 3.4 µM and a TGI [49] of 15 µM.
